Source: patent publication EP2552195B1, “ANTIMICROBIAL OIL-IN-WATER EMULSION” (B. Braun Melsungen AG, priority 2010, dated 2011)

Assays:
Format in all cases: cell-based
[1] = test system: Enterococcus hirae (ATCC 10541); experiment: Inactivator test per prEN13727 (2008) and prEN13624 (2010); details: n = 4
From the text: (§1) Es wurden Öl in Wasser Emulsionen hergestellt, die unterschiedliche Mengen X des antimikrobiellen Wirkstoffs Polyhexamethylenbiguanidiniumhydrochlorid (PHMB) [erfindungsgemäß] und Chlorhexidin (CHX) [Vergleich] aufweisen. Die Öl in Wasser Emulsionen sind in Tabelle 7 wiedergegeben. Tabelle 7
(§2) Um die Wirksamkeit der antimikrobiellen Wirkstoffe in einem bestimmten Konzentrationsbereich in einer Öl in Wasser Emulsion zu testen wurde ein Inaktivatortest nach prEN13727 (2008) und prEN13624 (2010) gegenüber Enterococcus hirae (ATCC 10541), Escherichia coli (ATCC 11229), Pseudomonas aeruginosa (ATCC 15442) und Staphylococcus aureus (ATCC 6538) für n = 4 durchgeführt. Die Messergebnisse sind in Tabelle 8 wiedergegeben. Tabelle 8

[2] = test system: Escherichia coli (ATCC 11229); experiment: as above; details: n = 4
From the text: as §1, §2

[3] = test system: Pseudomonas aeruginosa (ATCC 15442); experiment: as above; details: n = 4
From the text: as §1, §2

[4] = test system: Staphylococcus aureus (ATCC 6538); experiment: as above; details: n = 4
From the text: as §1, §2

Prüfmikroorganismen = experiment: Inactivator test, overall statement for all four test organisms; details: concentration range 0,02 - 0,05 Gew.-% in o/w emulsion
From the text: as §2

[5] = 0,02% active in o/w emulsion (Tabelle 7)
[6] = 0,03% active in o/w emulsion (Tabelle 7)
[7] = 0,04% active in o/w emulsion (Tabelle 7)
[8] = 0,05% active in o/w emulsion (Tabelle 7)

## N=C(NCCCCCCNC(=N)NC(=N)Nc1ccc(Cl)cc1)NC(=N)Nc1ccc(Cl)cc1 [CHX, Chlorhexidin]
[1]; [5]
  Kolonien-bildende Einheiten E. hirae: 104 ± 4
[1]; [6]
  Kolonien-bildende Einheiten E. hirae: 102 ± 5
[1]; [7]
  Kolonien-bildende Einheiten E. hirae: 106 ± 3
[1]; [8]
  Kolonien-bildende Einheiten E. hirae: 106 ± 3
[2]; [5]
  Kolonien-bildende Einheiten E. coli: 132 ± 1
[2]; [6]
  Kolonien-bildende Einheiten E. coli: 131 ± 5
[2]; [7]
  Kolonien-bildende Einheiten E. coli: 130 ± 9
[2]; [8]
  Kolonien-bildende Einheiten E. coli: 130 ± 9
[3]; [5]
  Kolonien-bildende Einheiten P. aeruginosa: 316 ± 50
[3]; [6]
  Kolonien-bildende Einheiten P. aeruginosa: 315 ± 43
[3]; [7]
  Kolonien-bildende Einheiten P. aeruginosa: 355 ± 10
[3]; [8]
  Kolonien-bildende Einheiten P. aeruginosa: 339 ± 37
[4]; [5]
  Kolonien-bildende Einheiten S. aureus: 149 ± 5
[4]; [6]
  Kolonien-bildende Einheiten S. aureus: 156 ± 13
[4]; [7]
  Kolonien-bildende Einheiten S. aureus: 160 ± 8
[4]; [8]
  Kolonien-bildende Einheiten S. aureus: 159 ± 10
Prüfmikroorganismen
  mikrobiozide Wirkung in der Öl in Wasser Emulsion: inaktiviert vollständig
